Assay results taken from publication PMC6277767, “Broad and Region-Specific Impacts of the Synthetic Cannabinoid CP 55,940 in Adolescent and Adult Female Mouse Brains” (Frontiers in Molecular Neuroscience, 2018).
Like-named read-outs stand apart in the source and are kept apart here.

Experiments:
CD1 female mice = test: Visual observation of mice given CP; format: in vivo, mouse; details: PND 35, PND 50 and adult mice; 3 mg/kg i.p.
Experimental: The Bloomington Institutional Animal Care and Use Committee of Indiana University reviewed and approved the animal procedures. Female mice from the CD1 strain were utilized to match our study examining THC’s effects on the brain lipidome ([Leishman et al., 2018]). Mice were given a single i.p. injection of either 3 mg/kg CP or 1:1:18 cremophor:ethanol:saline vehicle (please refer to the section “3 mg/kg CP Is Relevant for Synthetic Cannabinoid Abuse and Has Stronger Effects on the Female Mouse Brain Lipidome During Adolescence” for a justification of dose and use of female mice). Three different age groups were given injections: PND 35 and PND 50 adolescents, and adult mice (PND 113). At least eight mice in each age group received CP and at least eight received vehicle. Matching the THC study time course ([Leishman et al., 2018]), mice were sacrificed via rapid decapitation 2 h after injection. Brains were immediately removed and flash-frozen in liquid nitrogen, and then stored at -80°C until dissections were performed. Brains were dissected on an ice-cold dissection plate into the following regions: STR, HIPP, CER, THAL, CTX, HYP, MID, and STEM. These abbreviations for these brain areas will be used exclusively when discussing the results generated by these specific dissections. […]

CB1 = system: CB1; design: method as in Felder et al., 1995; details: ref Felder et al., 1995; read-out: IC50, inhibition of adenylate cyclase at CB1; cited from earlier work
mice = details: cited from earlier work; for catalepsy: single 0.3 mg/kg injection, ref Kow et al., 2014

CCCCCCC(C)(C)c1ccc([C@@H]2C[C@H](O)CC[C@H]2CCCO)c(O)c1 [CP 55,940]
locomotor activity (visual observation) (CD1 female mice): profoundly reduced locomotor activity
mortality (CD1 female mice): no mortality
catalepsy (mice; C57 mice): produced catalepsy
catalepsy (mice; CB1 KO mice): not
ED50 for catalepsy (mice; ref Little et al., 1988, Compton et al., 1992): 0.4 mg/kg
